Measurements as given in US20220348572A1, “BRIDGED HETEROCYCLYL-SUBSTITUTED PYRIMIDINE COMPOUND, PREPARATION METHOD THEREFOR, AND PHARMACEUTICAL USE THEREOF” (The National Institutes of Pharmaceutical R&D Co., Ltd., priority 2019, published 2022).

What was measured:
[1] = tested on: IFN-2α-stimulated TYK2/JAK1-mediated pathway (pSTAT3); assay: Inhibition of STAT3 signaling pathway of human whole blood (IFN-2α-induced pSTAT3, flow cytometry); type: cell-based
Experimental: Test Example 3: Inhibition Effect of the Compounds of the Present Invention on STAT3 Signaling Pathway of Human Whole Blood
Sample preparation: The compounds of the present invention and the control were dissolved in DMSO solvent respectively to formulate into 10 mM initial liquid. The maximum concentration of the compound was 10 μM, 3-fold dilution, 10 concentration gradients, and duplicate wells for each concentration gradient.
Experimental process: 20 μL of the compound of the present invention was added to a flow cytometer tube (BD, 352052) containing 180 μL anticoagulant sodium heparin. 20 μL PBS was added to the control. The sample was incubated at 37° C. for 30 min. 2 μL stimulating factor was added and then incubated at 37° C. for 20 min. 1 mL erythrocyte lysate was rapidly added, and the sample was repeatedly inverted 5-10 times or vortexed and then incubated at 37° C. for 10 min. The sample was centrifuged at 600 g for 6-8 min. The supernatant was discarded. The precipitate was vortexed until suspending. The cells were washed with 3 mL PBS and centrifuged at 600 g for 6-8 min. The supernatant was discarded. The precipitate was vortexed until suspending. 1 mL of membrane breaking solution was added, and the system was mixed gently, incubated on ice for 30 min, and centrifuged at 600 g for 6-8 min. The supernatant was discarded. The precipitate was vortexed until suspending. The cells were washed. 3 mL PBS was added. The system was centrifuged at 600 g for 6-8 min. The supernatant was discarded. The precipitate was vortexed untile suspending. The process was repeated twice. 100 μL PBS was added to each staining tube. IFN-2a was added for stimulation, and CD3 and pSTAT3 antibodies […] were added. The system was mixed well, protected from light and incubated at room temperature for 60 min. The cells were washed. 3 mL PBS was added. The system was centrifuged at 600 g for 6-8 min. The supernatant was discarded. The precipitate was vortexed until suspending. The precipitate was suspended in 150 μL in the dark for the flow cytometry analysis. The IC50 (half inhibitory concentration) of the compounds was obtained by using the following non-linear fitting equation:
Y=Bottom+(Top−Bottom)/(1+10^((Log IC50−X)*HillSlope));
X: Log value of the concentration of the compound;
Bottom: The minimum value, Top: The maximum value, HillSlope: Slope
The inhibition effect of by the compounds of the present invention on the IFN-2α-stimulated TYK2/JAK1-mediated pathway is shown in Table 3. IC50 value of 0-100 nM is shown as A, IC50 value of 100-300 nM is shown as B, IC50 value of 300-1000 nM is shown as C, IC50 value which is greater than 1000 nM is shown as D. NT means not tested.

JAK1 kinase = biological target: T1, JAK1 kinase (Homo sapiens, UniProt P23458); assay: In vitro inhibitory activity on JAK1 kinase (ADP-Glo Kinase Assay); type: biochemical; conditions: JAK1 kinase 4 nM, 1 mM ATP
T1 construct: purchased Invitrogen PV4744
T1 sequence (P23458 866-1154 limits assumed): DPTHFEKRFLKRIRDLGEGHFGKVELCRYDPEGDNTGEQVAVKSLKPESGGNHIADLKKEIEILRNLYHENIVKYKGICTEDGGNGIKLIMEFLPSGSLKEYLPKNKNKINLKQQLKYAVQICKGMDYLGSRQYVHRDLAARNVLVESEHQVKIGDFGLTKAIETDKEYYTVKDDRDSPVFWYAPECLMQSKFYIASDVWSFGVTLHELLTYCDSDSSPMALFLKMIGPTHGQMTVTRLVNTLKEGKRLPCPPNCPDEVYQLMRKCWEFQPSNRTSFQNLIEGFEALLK
Outline: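 JAK1 (4 nM final) preincubated with compound 15 min at 25° C., then substrate mix (1 mM ATP, IRS1 0.05 mg/ml) added for 60 min at 25° C. ADP-Glo luminescence read-out; top concentration 10 μM, 3-fold, 10 points, duplicates; IC50 reported in ranged classes.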

TYK2 kinase = biological target: T2, TYK2 kinase (Homo sapiens, UniProt P29597); assay: In vitro inhibitory activity on Tyk2 kinase (ADP-Glo Kinase Assay); type: biochemical; conditions: TYK2 kinase 4 nM, 1 mM ATP
T2 sequence (P29597 897-1187 limits assumed): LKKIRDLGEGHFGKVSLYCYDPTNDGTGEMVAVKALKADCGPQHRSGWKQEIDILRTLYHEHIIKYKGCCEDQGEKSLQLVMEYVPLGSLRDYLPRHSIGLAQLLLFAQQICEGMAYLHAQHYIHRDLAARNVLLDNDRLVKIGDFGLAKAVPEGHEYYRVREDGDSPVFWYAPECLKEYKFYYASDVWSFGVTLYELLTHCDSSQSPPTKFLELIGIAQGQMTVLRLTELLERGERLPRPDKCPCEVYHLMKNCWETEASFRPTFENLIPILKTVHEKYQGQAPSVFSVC
Experimental: Test Example 2: Determination of In Vitro Inhibitory Activity of the Compounds of the Present Invention on Tyk2 Kinase Experimental materials: TYK2 (Invitrogen, PV4790), ATP (Promega, V915B), ADP-Glo Kinase Assay (Promega, V9101), IRS1 (Signalchem, 140-58-1000). Sample preparation: The compounds of the present invention and the control product were dissolved in DMSO solvent respectively to formulate into 10 mM initial liquid. The maximum concentration of the compound was 10 μM, 3-fold dilution, 10 concentration gradients, and duplicate wells for each concentration gradient. Experimental process: 0.1 μL of the compound to be tested was transferred into a 384 reaction plate (PE, 6007290) via Echo and centrifuged at 1000 rpm/min for 1 min. 5 μL TYK2 kinase (final concentration of 4 nM) was transferred into the 384 reaction plate, which was then centrifuged at 1000 rpm/min for 1 min, and incubated at 25° C. for 15 min. 5 μL substrate mixture (1 mM ATP, IRS1 0.05 mg/ml, kinase buffer solution) was transferred into the 384 reaction plate, which was then centrifuged at 1000 rpm/min for 1 min, and incubated at 25° C. for 60 min. 10 μL ADP-Glo was transferred into the 384 reaction plate, which was then centrifuged at 1000 rpm/min for 1 min, and incubated at 25° C. for 40 min. 20 μL test solution was transferred into the 384 reaction plate, which was centrifuged at 1000 rpm/min for 1 min and incubated at 25° C. for 40 min. RLU (Relative luminescence unit) signal was read by using an Envision multifunctional plate reader. The signal intensity was used to characterize the degree of the kinase activity. […] IC50 value of 0-100 nM is shown as A, IC50 value of 100-300 nM is shown as B, IC50 value of 300-1000 nM is shown as C, and IC50 value which is greater than 1000 nM is shown as D. NT means not tested.

[2] = Pharmacokinetic study in rats after oral administration; type: in vivo, SD rats
Experimental: Experimental Example 5: Pharmacokinetic Studies of the Compounds of Example 1, Example 1-a, Example 1-b and Example 3 in Rats In order to investigate the blood concentration and pharmacokinetic parameters of the compounds of the present invention after oral administration, the corresponding LC/MS/MS assay and plasma treatment methods were developed for the compounds of the Experimental Examples. […] Male SD rats were orally administered at a dose of 5 mg/kg. Blood was orbitally collected and anticoagulated with sodium heparin. The plasma was deproteinated with acetonitrile. The samples were analyzed by LC/MS/MS method. Wherein, AUC<1000 μg/L*h is shown as C, AUC between 1000-2000 μg/L*h is shown as B, AUC>2000 μg/L*h is shown as A; Cmax<600 μg/L is shown as C, Cmax between 600-900 μg/L is shown as B, and Cmax>900 μg/L is shown as A.

[3] = rat, male SD rats, oral 5 mg/kg, plasma

Row | Compound | IC50 [1] | IC50 (JAK1 kinase) | IC50 (TYK2 kinase) | pharmacokinetic parameters (in words) ([2]; oral administration in SD rats) | AUC(0-t) [2, 3] | Cmax [2, 3]
1 | Cn1cc(Nc2nccc(C3=CC4CCC(C3)N4C(=O)C3CC3F)n2)cn1 (stereo not shown) [Compound 51, (2-fluorocyclopropyl)(3-(2-((1-methyl-1H-pyrazol-4-yl)amino)pyrimidin-4-yl)-8-azabicyclo[3.2.1]oct-2-en-8-yl)methanone] | < 100 nM | < 100 nM |  |  |  | 
2 | Cn1cc(Nc2nccc(C3=C[C@@H]4CC[C@H](C3)N4C(=O)[C@@H]3CC3(F)F)n2)cn1 (single isomer, unassigned) [Compound 1-a] | < 100 nM | < 100 nM | < 100 nM | good pharmacokinetic parameters | 1000 to 2000 ng·h/mL | 600 to 900 ng/mL
3 | Cn1cc(Nc2nccc(C3=CC4CCC(C3)N4C(=O)NC3(C#N)CC3)n2)cn1 (stereo not shown) [Compound 54, N-(1-cyanocyclopropyl)-3-(2-((1-methyl-1H-pyrazol-4-yl)amino)pyrimidin-4-yl)-8-azabicyclo[3.2.1]oct-2-ene-8-carboxamide] | < 100 nM | > 1000 nM |  |  |  | 
